How the values were obtained:
Format in all cases: cell-based, human
[1] = test system: MMP-3; assay: TNF-α induced MMP-3 mRNA level in T98G cells (TaqMan); details: 10, 25 and 50 μg/ml 18 hr, then TNF-α 10 ng/ml 3 hr, FIG. 16
Experimental: Glioblastoma (T98G, brain cells) cells were pretreated with different batches of ethanol extract or purified compounds of C. versicolor for 18 hr, and then treated with recombinant human TNF-α (10 ng/ml) for another 3 hr. Total RNA extraction was performed by TRIzol reagent (Invitrogen) according to the manufacturer's instructions. Total RNA was reverse transcribed by Superscript II reverse transcriptase (Invitrogen) with oligo (dT) primers. MMP-3 mRNA levels were analyzed by TaqMan Gene Expression Assays (Applied Biosystems).
Briefly, glioblastoma (T98G; brain cells) cells were pretreated with MPUB-EtOH at different concentrations (1, 10 and 50 ug/ml) for 18 hrs, and then treated with recombinant human TNFα (10 ng/ml) for 3 hrs. MMP-3 mRNA levels were analyzed by TaqMan Gene Expression Assays. […] A p value of <0.05 (*) was considered statistically significant.

[2] = test system: MMP-3; assay: TNF-α induced MMP-3 protein expression in T98G cells (ELISA); details: 10, 25 and 50 μg/ml 18 hr, then TNF-α 10 ng/ml 24 hr, FIG. 17
Experimental: T98G cells were pretreated with different batches of ethanol extract of C. versicolor for 18 hr, and then treated with recombinant human TNF-α (10 ng/ml) for another 24 hr. Protein levels of MMP-3 in the cell culture supernatants were analyzed by enzyme-linked immunosorbent assays (ELISA) using commercially available assay kits (R&D Systems).

[3] = test system: Glioblastoma (T98G) cells; assay: Matrigel Invasion Chamber tumor cell invasion assay, T98G; details: 25 μg/ml 18 hr, invasion 24 hr; FIG. 22
Experimental: Cell invasiveness was studied using BD BioCoat™ Matrigel™ Invasion Chamber (BD Biosciences). T98G cells suspended in MEM containing 1% FBS, 1% penicillin-streptomycin and 1% sodium pyruvate were seeded overnight on top of gel in each chamber. Bicarbonate based culture medium was added into the bottom wells of the plate. After incubation, the cells were treated with ethanol extract of C. versicolor/Cove-1 for 18 hr. The chambers were then transferred to a new plate with each well containing MEM supplemented with 10% FBS. Cells were allowed to invade through the matrices at 37° C. for another 24 hr. After the invasion assay, invaded cells on the lower surface of the chamber were fixed with 100% methanol for 2 min, and stained with Crystal Violet. The number of invading cells was quantified by counting under a light microscope.
Specifically, the effect of C. versicolor on cancer cell invasiveness was studied using a Matrigel Invasion Chamber. […] The number of invading cells was quantified by counting under a light microscope.
Specifically, the effect of 9-KODE methyl ester on cell invasiveness was studied using Matrigel Invasion Chamber. Glioblastoma (T98G) cells were treated with 9-KODE methyl ester for 18 hr, and then the cells were allowed to invade through the matrices for another 24 hr. The number of invading cells was quantified by counting under a light microscope.

[4] = test system: T98G cells; assay: MTT assay on T98G cells; details: 10, 25 and 50 μg/ml, time course of 48 hr, FIG. 19
Experimental: T98G cells were incubated with different batches of ethanol extract or purified compounds of C. versicolor for 48 hr. After treatment, MTT (3-[4,5-dimethylthiazol-2-yl]-2,5-di-phenyltetrazolim bromide) (Sigma) was added to the medium at a final concentration of 1 mg/ml and followed by 2 hr incubation at 37° C. MTT formazan formed was then dissolved in 200 μl of isopropanol and the absorbance of the supernatant was measured at 570 nm using a 96-well microplate reader.

Structure (SMILES): CCCCC/C=C/C=C/C(=O)CCCCCCCC(=O)OC [Cove-1, 9-oxo-10E,12E-octadecadienoic acid methyl ester]
- TNF-α induced MMP-3 mRNA level [1]: suppressed TNF-α induced MMP-3 mRNA level
- TNF-α induced MMP-3 protein expression [2]: inhibited TNF-α induced MMP-3 protein expression
- T98G cell invasiveness (number of invading cells) [3]: reduced the invasiveness of T98G significantly
- metabolic activities of the cells (MTT) [4]: no significant differences in the metabolic activities
